# Assay results published in ChEMBL document CHEMBL5385876, “Discovery of unglycosylated indolocarbazoles as ROCK2 isoform-selective inhibitors for the treatment of breast cancer metastasis” (Eur J Med Chem, 2023).
# Where a name gives a salt, the structure may show the parent alone.
# Biological target: Rho-associated protein kinase 2 (Homo sapiens, UniProt O75116)
# Assay: Inhibition of N-terminal His10-StrepII tagged human ROCK2 catalytic domain (1 to 553 residues) expressed in Sf9 insect cells by HTRF assay
# Conditions: not given
# Rho-associated protein kinase 2, sequence (O75116 whole entry, the tested form may be a part): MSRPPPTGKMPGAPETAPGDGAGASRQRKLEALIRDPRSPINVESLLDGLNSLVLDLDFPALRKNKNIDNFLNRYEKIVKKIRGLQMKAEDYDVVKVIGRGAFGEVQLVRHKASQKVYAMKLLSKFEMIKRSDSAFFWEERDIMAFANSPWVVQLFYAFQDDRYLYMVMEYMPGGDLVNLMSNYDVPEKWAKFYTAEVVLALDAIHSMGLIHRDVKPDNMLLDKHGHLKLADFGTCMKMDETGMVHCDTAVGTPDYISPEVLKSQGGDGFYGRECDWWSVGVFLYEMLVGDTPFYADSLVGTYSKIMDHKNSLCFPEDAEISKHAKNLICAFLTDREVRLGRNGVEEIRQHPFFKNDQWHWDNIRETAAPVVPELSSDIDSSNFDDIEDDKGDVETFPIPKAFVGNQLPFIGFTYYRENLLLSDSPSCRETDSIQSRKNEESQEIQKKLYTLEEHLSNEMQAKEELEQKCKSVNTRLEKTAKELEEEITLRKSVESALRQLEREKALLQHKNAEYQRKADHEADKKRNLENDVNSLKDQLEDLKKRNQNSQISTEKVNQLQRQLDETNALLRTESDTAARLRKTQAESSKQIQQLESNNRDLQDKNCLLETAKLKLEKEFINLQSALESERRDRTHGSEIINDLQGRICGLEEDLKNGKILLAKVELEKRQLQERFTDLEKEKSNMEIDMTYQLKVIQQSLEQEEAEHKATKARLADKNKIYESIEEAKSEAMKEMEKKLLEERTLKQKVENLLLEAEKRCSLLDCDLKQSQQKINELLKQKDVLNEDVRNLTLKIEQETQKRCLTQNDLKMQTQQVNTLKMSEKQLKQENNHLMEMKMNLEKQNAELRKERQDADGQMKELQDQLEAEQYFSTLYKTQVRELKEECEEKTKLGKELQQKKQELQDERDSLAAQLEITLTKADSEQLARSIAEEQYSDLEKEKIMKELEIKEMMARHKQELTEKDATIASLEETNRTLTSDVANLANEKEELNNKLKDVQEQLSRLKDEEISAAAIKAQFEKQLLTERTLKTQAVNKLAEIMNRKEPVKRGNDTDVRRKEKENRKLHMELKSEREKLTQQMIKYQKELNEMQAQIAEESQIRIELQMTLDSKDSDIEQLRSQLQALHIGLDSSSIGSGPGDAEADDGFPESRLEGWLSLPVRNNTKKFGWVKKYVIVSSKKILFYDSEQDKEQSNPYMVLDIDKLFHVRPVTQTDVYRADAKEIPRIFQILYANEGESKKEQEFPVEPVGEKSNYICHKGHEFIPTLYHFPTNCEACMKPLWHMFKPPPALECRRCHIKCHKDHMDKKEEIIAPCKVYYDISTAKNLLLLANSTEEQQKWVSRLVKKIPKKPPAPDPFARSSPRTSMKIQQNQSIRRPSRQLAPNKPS
row,SMILES,IC50
1,C[C@@H]1O[C@@H](n2c3ccccc3c3c4c(c5c6ccccc6[nH]c5c32)CNC4=O)C[C@@H](NC=O)[C@H]1O,> 500 nM
2,COC1NC(=O)c2c1c1c3ccccc3[nH]c1c1[nH]c3ccccc3c21 (configuration not stated),> 500 nM
3,CNC(=O)C[C@H]1O[C@@](C)(C(=O)OC)n2c3ccccc3c3c4c(c5c6ccccc6n1c5c32)C(=O)NC4,2720 nM
4,CO[C@@H]1[C@@H](O)[C@@H](O)[C@H]2O[C@]1(C)n1c3ccccc3c3c4c(c5c6ccccc6n2c5c31)C(=O)NC4=O,> 500 nM
5,O=C1NC(O)c2c1c1c3ccccc3[nH]c1c1[nH]c3ccccc3c21 (configuration not stated),> 500 nM
6,Cc1ccc2[nH]c3c4[nH]c5ccccc5c4c4c(c3c2c1)C(=O)NC4=O,> 500 nM
7,Cc1ccc2[nH]c3c4[nH]c5ccccc5c4c4c(c3c2c1)CNC4=O,> 500 nM
8,CO[C@@H]1[C@H](O)[C@H](O)[C@H](C)O[C@H]1n1c2ccc(O)cc2c2c3c(c4c5ccccc5[nH]c4c21)CNC3=O,> 500 nM
9,C[C@]12O[C@H](C[C@]1(O)C(=O)O)n1c3ccccc3c3c4c(c5c6ccccc6n2c5c31)C(=O)NC4=O,300 nM
10,CC(C)(C)c1ccc2[nH]c3c4[nH]c5ccccc5c4c4c(c3c2c1)CNC4=O,> 500 nM
11,C[C@]12O[C@H](C[C@]1(O)C(=O)O)n1c3ccccc3c3c4c(c5c6ccccc6n2c5c31)CNC4=O,> 500 nM
12,CN[C@@H]1C[C@H]2O[C@@](C)([C@@H]1OC)n1c3ccccc3c3c4c(c5c6ccccc6n2c5c31)C(=O)NC4=O (stereo in doubt; 15),20 nM
13,COC(=O)[C@H]1C[C@H]2O[C@]1(C)n1c3ccccc3c3c4c(c5c6ccccc6n2c5c31)C(=O)NC4,370 nM
14,CC(C)(C)c1ccc2[nH]c3c4[nH]c5ccccc5c4c4c(c3c2c1)C(=O)NC4,> 500 nM
15,O=C1NC(=O)c2c1c1c3ccccc3[nH]c1c1[nH]c3ccccc3c21 [STAUROSPORINE AGLYCON],> 500 nM
16,O=C1NC(=O)c2c1c1c3ccccc3[nH]c1c1[nH]c3c(O)cccc3c21,> 500 nM
17,COc1cccc2[nH]c3c4[nH]c5ccccc5c4c4c(c3c12)C(=O)NC4=O,> 500 nM
18,CC1NC(=O)c2c1c1c3ccccc3[nH]c1c1[nH]c3ccccc3c21 (configuration not stated),8220 nM

row,SMILES,IC50
1,O=C1NCc2c1c1c3ccccc3[nH]c1c1[nH]c3ccccc3c21 [STAUROSPORINONE],> 500 nM
2,COc1ccc2[nH]c3c4[nH]c5ccccc5c4c4c(c3c2c1)CNC4=O,> 500 nM
3,C[C@@H]1O[C@@H](n2c3ccccc3c3c4c(c5c6ccccc6[nH]c5c32)C(=O)NC4=O)[C@H](O)[C@H](O)[C@H]1O,> 500 nM
4,CC(C)(C)c1ccc2[nH]c3c4[nH]c5ccccc5c4c4c(c3c2c1)C(=O)NC4=O,> 500 nM
5,COC1=C(C)O[C@@H]2C[C@@]1(OC)n1c3ccccc3c3c4c(c5c6ccccc6n2c5c31)C(=O)NC4,> 500 nM
6,O=C1NCc2c1c1c3ccccc3[nH]c1c1[nH]c3c(O)cccc3c21,> 500 nM
7,CO[C@H]1NC(=O)c2c1c1c3ccccc3[nH]c1c1c2c2ccccc2n1[C@@H]1O[C@@H](C)[C@H](O)[C@@H](O)[C@H]1O,> 500 nM
8,COc1ccc2[nH]c3c4[nH]c5ccc(OC)cc5c4c4c(c3c2c1)C(=O)NC4=O [GW296115X],> 500 nM
9,C[C@@H]1O[C@@H](n2c3ccccc3c3c4c(c5c6ccccc6[nH]c5c32)[C@H](O)NC4=O)[C@H](O)[C@H](O)[C@H]1O,> 500 nM
10,COC(=O)[C@@]1(OC)C[C@H]2O[C@]1(C)n1c3ccccc3c3c4c(c5c6ccccc6n2c5c31)C(=O)NC4,330 nM
11,CO[C@H]1C(=O)C[C@H]2O[C@]1(C)n1c3ccccc3c3c4c(c5c6ccccc6n2c5c31)C(=O)NC4,> 500 nM
12,COc1ccc2c(c1)c1c3c(c4c5ccccc5n(C)c4c1n2C)C(=O)N(C)C3=O,> 500 nM
13,COc1ccc2[nH]c3c4[nH]c5ccccc5c4c4c(c3c2c1)C(=O)NC4,> 500 nM
14,CO[C@@H]1/C(=N/O)C[C@H]2O[C@]1(C)n1c3ccccc3c3c4c(c5c6ccccc6n2c5c31)C(=O)NC4,> 500 nM
15,CO[C@H]1NC(=O)c2c1c1c3ccccc3n3c1c1c2c2ccccc2n1[C@@H]1O[C@@]3(C)[C@H](OC)[C@@H](O)[C@H]1O,> 500 nM
16,CO[C@@H]1C(=O)C[C@H]2O[C@]1(C)n1c3ccccc3c3c4c(c5c6ccccc6n2c5c31)C(=O)NC4,> 500 nM
17,C[C@]12O[C@H](C[C@@H](O)[C@H]1O)n1c3ccccc3c3c4c(c5c6ccccc6n2c5c31)CNC4=O,2880 nM

# Next, values leading:
row,IC50,SMILES
1,510 nM,CN1Cc2c(c3c4ccccc4[nH]c3c3[nH]c4ccccc4c23)C1=O
2,340 nM,CO[C@@H]1[C@H](NC(C)=O)C[C@H]2O[C@]1(C)n1c3ccccc3c3c4c(c5c6ccccc6n2c5c31)C(=O)NC4
3,360 nM,C[C@]12O[C@H](C[C@@H](N)[C@H]1O)n1c3ccccc3c3c4c(c5c6ccccc6n2c5c31)C(=O)NC4=O
4,2120 nM,COc1cc(/C=C(/C(N)=O)n2c3ccccc3c3c4c(c5c6ccccc6[nH]c5c32)CNC4=O)ccc1O
5,470 nM,C[C@@H]1O[C@@H](n2c3ccccc3c3c4c(c5c6ccccc6[nH]c5c32)CNC4=O)[C@H](O)[C@H](O)[C@H]1O
6,320 nM,COC1NC(=O)c2c1c1c3ccccc3[nH]c1c1[nH]c3ccc(O)cc3c21 (configuration not stated)
7,2070 nM,CO[C@@H]1[C@H](N(C)C(C)=O)C[C@H]2O[C@]1(C)n1c3ccccc3c3c4c(c5c6ccccc6n2c5c31)C(=O)NC4=O
8,360 nM,CO[C@@H]1[C@H](N(C)C(N)=O)C[C@H]2O[C@]1(C)n1c3ccccc3c3c4c(c5c6ccccc6n2c5c31)C(=O)NC4
9,120 nM,C[C@H]1O[C@@H]2C[C@](O)([C@H]1O)n1c3ccccc3c3c4c(c5c6cc(O)ccc6n2c5c31)C(=O)NC4
10,670 nM,O=C1NC(=O)c2c1c1c3ccccc3[nH]c1c1[nH]c3ccc(O)cc3c21
11,260 nM,CO[C@H]1[C@@H](N2CC[C@@H](O)C2=O)C[C@H]2O[C@@]1(C)n1c3ccccc3c3c4c(c5c6ccccc6n2c5c31)C(=O)NC4 (racemic)
12,530 nM,O=C1NC(=O)c2c1c1c3ccccc3[nH]c1c1[nH]c3cc(O)ccc3c21
13,3 nM,O=C1NCc2c1c1c3cc(O)ccc3[nH]c1c1[nH]c3ccc(O)cc3c21
14,140 nM,CO[C@@H]1[C@H](N(C)C=O)C[C@H]2O[C@]1(C)n1c3ccccc3c3c4c(c5c6ccccc6n2c5c31)C(=O)NC4
15,210 nM,C[C@@H]1O[C@@H]2C[C@](O)([C@H]1O)n1c3ccccc3c3c4c(c5c6cc(O)ccc6n2c5c31)C(=O)NC4
16,60 nM,CC(=O)N[C@H]1C[C@H]2O[C@@](C)([C@@H]1O)n1c3ccccc3c3c4c(c5c6ccccc6n2c5c31)C(=O)NC4
17,570 nM,CO[C@@H]1[C@H](N(C)C(C)=O)C[C@H]2O[C@]1(C)n1c3ccccc3c3c4c(c5c6ccccc6n2c5c31)C(=O)NC4
18,7 nM,O=C1NC(=O)c2c1c1c3cc(O)ccc3[nH]c1c1[nH]c3ccc(O)cc3c21
19,720 nM,CO[C@@H]1[C@@H](O)C[C@H]2O[C@]1(C)n1c3ccccc3c3c4c(c5c6ccccc6n2c5c31)C(=O)NC4
20,550 nM,Cn1c2ccccc2c2c3c(c4c5ccccc5[nH]c4c21)C(=O)NC3
21,360 nM,CO[C@@H]1[C@H](N)C[C@H]2O[C@]1(C)n1c3ccccc3c3c4c(c5c6ccccc6n2c5c31)C(=O)NC4=O
22,35 nM,C[C@]12O[C@H](C[C@@H](N)[C@H]1O)n1c3ccccc3c3c4c(c5c6ccccc6n2c5c31)CNC4=O
23,2240 nM,CC(=O)N[C@@H]1C[C@H](n2c3ccccc3c3c4c(c5c6ccccc6[nH]c5c32)C(=O)NC4=O)O[C@@H](C)[C@@H]1O
24,260 nM,O=C1NCc2c1c1c3cccc(O)c3[nH]c1c1[nH]c3ccccc3c21

# System: not listed separately
# Assay: Toxicity in BALB/c nude mouse xenografted with human MDA-MB-231 cells harboring Luc-mcherry assessed as reduction in body weight at 15 mg/kg, iv administered once a day for 45 days
# Type: organism-based
# Conditions: in vivo, 1080 h, time 45 day
row,SMILES,Activity
1,C[C@@H](N)[C@H]1CC[C@H](C(=O)Nc2ccncc2)CC1 [Y-27632],Non-Toxic

# System: MDA-MB-231
# Assay: Antiproliferative activity against human MDA-MB-231 cells assessed as suppression of cell growth incubated for 72 hrs by SRB assay
# Type: functional, cell-based
# Conditions: MDA-MB-231, 72 h
row,IC50,SMILES
1,1010 nM,COc1cccc2c1C(=O)c1c(O)c3c(c(O)c1C2=O)C[C@@](O)(C(=O)CO)C[C@@H]3O[C@H]1C[C@H](N)[C@H](O)[C@H](C)O1 [DOXORUBICIN HYDROCHLORIDE]

# System: SK-OV-3
# Assay: Antiproliferative activity against human SK-OV-3 cells assessed as suppression of cell growth incubated for 72 hrs by SRB assay
# Type: functional, cell-based
# Conditions: SK-OV-3, 72 h
row,IC50,SMILES
1,480 nM,COc1cccc2c1C(=O)c1c(O)c3c(c(O)c1C2=O)C[C@@](O)(C(=O)CO)C[C@@H]3O[C@H]1C[C@H](N)[C@H](O)[C@H](C)O1 [DOXORUBICIN HYDROCHLORIDE]
